Experimental data: US5608095A, “Alkyl-4-silyl-phenols and esters thereof as antiatherosclerotic agents” (Hoechst Marion Roussel, Inc., priority 1996, dated 1997)
Like-named read-outs stand apart in the source and are kept apart here.

Legend:
[1] = HPLC quantitation of compound and metabolite concentration in rat serum and liver; assay type: in vivo, male Sprague-Dawley rats; details: 4 days; for concentration at 96 h: po
Source text: (§1) A typical experiment consisted of 4-6 groups of rats (N=5 per group) with 1 group being a control which received no MDL compound and the other groups being treated with 0.3% MDL compound. Some of the compounds were either repeated at 0.3% or evaluated again at the lower dose of 0.1%. Male Sprague-Dawley rats, 50-100 g, (Harlan Laboratories, Indianapolis, Ind.) were housed in groups of 5, fed ad libitum water and Purina Rodent chow (#5002) with or without MDL compound as a dietary admixture for 4 days. Dietary admixtures (0.3%) were made by mixing 1.2 grams of an MDL compound with 400 grams of Purina rodent chow (#5002). The MDL compound was mixed with approximately 50 grams of food using a mortar and pestle. This was added to the remainder of the food and mixed for 3 hours on a rotary mixer. In the morning of day 5, non-fasted rats were anesthetized with carbon dioxide, and blood was collected by cardiac puncture. Rats were sacrificed by cervical dislocation. Body weights and liver weights were recorded in grams. Food consumption was recorded as grams.cndot.day^-1.cndot.rat^-1. Deaths were recorded as mortality. Aliquots of fresh serum were used for clinical chemistries, thiobarbituric acid reactive substances (TBARS) and conjugated diene measurements. Aliquots of serum (~0.5mL) and whole livers were frozen at -20° C. for compound and metabolite concentration determination at a later time.
Serum and liver concentrations of parent compound and the metabolites, bisphenol and diphenoquinone, were determined by reverse phase HPLC using a Waters 990 Powerline system. Livers (1 gram samples) were homogenized with 5.0 mL PBS, pH 7.4, using a Polytron tissue homogenizer at setting 5 for 20-30 seconds. Serum or liver homogenates were extracted as follows: 100μL of either serum or homogenate were added to 2.0 mL diethyl ether:ethanol (3:1) while vortexing the tube. The sample tubes were capped and centrifuged for 10 min at 5° C. at 3500 rpm in a Beckman GPKR centrifuge with a GH 3.7 rotor. The supernatants were transferred to clean tubes and dried under N2. Samples were reconstituted with 200 μL of acetonitrile:hexane:0.1M ammonium acetate (90:6.5:3.5, by vol.). Then, 100 μL were injected onto a Waters Deltapak C18-300 Å column, and eluted with an 83% acetonitrile:17% water mobile phase at a flow rate of 1.5 mL/min. Absorbances at the wavelengths of 240, 254, and 420 nm were recorded. Compound concentrations were calculated from known quantities of authentic parent compounds after correction for recovery; the range of recovery from spiked samples was 40 to 100%. The lowest detectable limit for this class of compounds was ~0.5 μg/mL. […]. Concentrations were calculated as μg/mL of serum and μg/g of liver.

[2] = test system: oxidation of serum lipids; assay: TBARS assay, serum of cholesterol-fed rabbits; assay type: in vivo, female New Zealand White rabbits; details: Oryctolagus cuniculus, po, read-out: TBARS, percent of control; for response vs control in vivo at 0.4 %: 168 h
Method in brief: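 Female NZW rabbits ate 0.2% cholesterol chow with 0.4% dietary compound (some 0.26% or 0.6%) for 7 days (14 days at 0.6%); fasted serum was collected. Serum was oxidised with 5 mM CuSO4 solution, 37 °C 5 h, then reacted with thiobarbituric acid at 90 °C for 30 min. MDA nmol came from an A540 standard curve, versus untreated-rabbit serum.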

oxidation of lipids = assay: Conjugated diene determination, rat serum; assay type: in vivo, male Sprague-Dawley rats; details: pooled rat serum, 4 days, mean of 2 determinations
Source text: as §1
Conjugated diene lag phase is another indicator of the oxidation of lipids. Lipids exposed to Cu^++ form conjugated dienes that absorb ultraviolet light in the range of 230 to 235 nm. The lag phase of diene formation gives an indication of the amount of oxidation of the lipids. A lag phase longer than control samples indicate inhibition of the oxidation. Conjugated diene lay phase was determined using a Varian DMS200 spectrophotometer (fitted with a constant temperature, 5 cuvette sample changer) at 30° C. Twenty (20) μL of pooled serum were added to cuvettes containing 3.0 mL phosphate buffered saline, pH 7.5, and mixed. The absorbances of all cuvettes were measured, and the instrument baseline was set to zero using the lowest absorbing sample. Next, 100 μL of 1 mmol CuSO4 were added and immediately mixed. The absorbance of each cuvette was recorded at 2 min intervals for a period of 840 min. The data were captured and transferred to a Microsoft EXCEL® spreadsheet where the curves were smoothed and differentials obtained. Lag times were determined mathematically as minutes. Serum samples were pooled (N=5); data presented are the mean values of 2 determinations. Serum samples from treated rats were compared to serum samples from control rats that received no MDL compound.

[3] = rat liver, diet 0.3%, read-out: Liver Parent = parent compound concentration
[4] = rat serum, diet 0.3%, read-out: Serum Parent = parent compound concentration
[5] = rabbit serum, diet 0.4%, 7 days
[6] = rat liver, diet 0.1%, read-out: Liver Parent = parent compound concentration
[7] = rat serum, diet 0.1%, read-out: Serum Parent = parent compound concentration

Row | Structure (SMILES) | Liver Parent = parent compound concentration ([1]; rat liver, diet 0.3%) [µg/g] | Serum Parent = parent compound concentration ([1]; rat serum, diet 0.3%) [µg/mL] | concentration at 96 h [1, 3] [ng/g] | concentration at 96 h [1, 4] [ng/mL] | response vs control in vivo at 0.4 % [2, 5] [%] | also measured
1 | CC(C)(C)c1cc(OC[Si](C)(C)c2ccccc2)cc(C(C)(C)C)c1OC(=O)CCC(=O)O [MDL 103,076, 2,6-Di-t-butyl-4-[(dimethylphenylsilyl)methyloxy]phenol succinic acid ester] | 0 | 0 |  |  |  | 
2 | CC(C)(C)c1cc(SC[Si](C)(C)c2ccccc2)cc(C(C)(C)C)c1OC(=O)CCC(=O)O [MDL 103,141, 2,6-Di-t-butyl-4-[(dimethylphenylsilyl)methylthio]phenol sucinic acid ester] | 0 | 0 |  |  |  | 
3 | CC(=O)Oc1c(C(C)(C)C)cc(OC[Si](C)(C)c2ccccc2)cc1C(C)(C)C [MDL 103,377, 2,6-Di-t-butyl-4-[(dimethylphenylsilyl)methyloxy]phenol acetic acid ester] |  |  | 22200 | 7720 |  | 
4 | CC(C)(C)c1cc(OC[Si](C)(C)c2ccccc2)ccc1O [MDL 103,491, 2-t-Butyl-4-[(dimethylphenylsilyl)methyloxy]phenol] | 0 |  |  | 3000 | 32 | response vs control in vivo at 0.6 % ([2]; 336 h, rabbit serum, diet 0.6%, 14 days): 18%; CONJ. DIENE (conjugated diene lag phase) (oxidation of lipids; diet 0.1%): 168 min; Liver Parent = parent compound concentration ([1]; rat liver, diet 0.1%): 0 µg/g; Serum Parent = parent compound concentration ([1]; rat serum, diet 0.1%): 0 µg/mL
5 | CN(C)c1ccc([Si](C)(C)COc2cc(C(C)(C)C)c(O)c(C(C)(C)C)c2)cc1 [MDL 104,556, 2,6-Di-t-butyl-4-[(4-N,N-dimethylaminophenyldimethylsilyl)methyloxy]phenol] |  |  | 60300 | 16300 | 70 | CONJ. DIENE (conjugated diene lag phase) (oxidation of lipids; diet 0.1%): 200 min; concentration at 96 h [1, 6]: 38700 ng/g; concentration at 96 h [1, 7]: 9200 ng/mL
6 | CC(C)(C)c1cc(OC[Si](C)(c2ccccc2)c2ccccc2)cc(C(C)(C)C)c1O [MDL 104,599, 2,6-Di-t-butyl-4-[(diphenylmethylsilyl)methloxy]phenol] |  |  | 44900 | 28300 | 79 | 
7 | CC(C)(C)c1cc(OC[Si](C)(C)c2ccccc2)c(C(C)(C)C)cc1O [MDL 104,962, 2,5-Di-t-butyl-4-[(dimethylphenylsilyl)methyloxy]phenol] |  |  | 43500 | 16400 | 19 | CONJ. DIENE (conjugated diene lag phase) (oxidation of lipids; diet 0.3%): 320 min
8 | Cc1cc(OC[Si](C)(C)c2ccccc2)c(C)c(C)c1O [MDL 105,314, 2,3,6-Trimethyl-4-[(dimethylphenylsdilyl)methloxy]phenol] | 0.0 | 0.0 |  |  |  | 
9 | CC(=O)Oc1ccc(OC[Si](C)(C)c2ccccc2)cc1C(C)(C)C [MDL 105,443, 2-t-Butyl-4-[(dimethylphenylsilyl)methyloxy]phenol acetic acid ester] | 0 | 0.0 |  |  | 42 | CONJ. DIENE (conjugated diene lag phase) (oxidation of lipids; diet 0.1%): 151 min; Liver Parent = parent compound concentration ([1]; rat liver, diet 0.1%): 0 µg/g; Serum Parent = parent compound concentration ([1]; rat serum, diet 0.1%): 0 µg/mL
10 | CC(C)(C)c1cc(OC[Si](C)(C)c2ccc(C(F)(F)F)cc2)cc(C(C)(C)C)c1O [MDL 105,975, 2,6-Di-t-butyl-4-[(dimethyl-4-trifluoromethylphenylsilyl)methyloxy]phenol] |  |  | 186000 | 35800 |  | response vs control in vivo at 0.4 % [2]: 68%; concentration at 96 h [1, 6]: 94500 ng/g; concentration at 96 h [1, 7]: 23800 ng/mL
11 | COc1ccc([Si](C)(C)COc2ccc(O)c(C(C)(C)C)c2)cc1 [MDL 106,834, 2-t-Butyl-4-[(dimethyl-p-methoxylphenylsilyl)methyloxy]phenol] |  |  | 2700 | 1800 | 70 | CONJ. DIENE (conjugated diene lag phase) (oxidation of lipids; diet 0.3%): 492 min
